# Data as given in patent US20250269072A1, “PROCESSES FOR PREPARING RADIOLABELLED CONJUGATES” (CENTENARY INSTITUTE OF CANCER MEDICINE AND CELL BIOLOGY, priority 2021, published 2025).
# Values joined by “and” are separate entries in the source; they are usually repeats but may differ in a detail not shown here. Equal entries are not always repeated.
# Assay: Human studies: radiation dosimetry of subjects 1-4 (Olinda/EXM)
# Format: in vivo
# Details: subjects 1-4 = the 7th table-the 10th table
# Protocol: For subjects 1-4, radiation dosimetry was calculated using Olinda/EXM based on the organ biodistribution discussed above.
# Tables 7-10 show the estimate for radiation dosimetry for subjects 1˜4 of 200 MBq of ^68Ga NODAGA GSAO for individual organs and for the whole body in mSv/MBq (EDE cont.=effective dose equivalent contribution, ED Cont.=effective dose contribution). The estimated whole-body dose from the one (1) low dose CT and two (2) ultra-low dose CTs was 9.2 mSv.
structure (smiles),measurement,setting,value
O=C(O)CNC(=O)[C@H](CSCC(=O)Nc1ccc([As](O)O)cc1)NC(=O)CC[C@H](NC(=O)CCC1C(=O)[O][68Ga]2[O]C(=O)CN3CCN(CCN1CC3)CC(=O)[O]2)C(=O)O (stereo partly shown) [^68Ga-NODAGA-GSAO],Alpha dose,Adrenals,0.00E+00 mSv/MBq
same,ED Cont.,Adrenals,7.09E−05 mSv/MBq and 7.38E−05 mSv/MBq and 4.84E−05 mSv/MBq and 8.93E−05 mSv/MBq
same,Photon dose,Adrenals,4.52E−03 mSv/MBq and 5.24E−03 mSv/MBq and 3.71E−03 mSv/MBq and 4.86E−03 mSv/MBq
same,Total dose,Adrenals,1.42E−02 mSv/MBq and 1.48E−02 mSv/MBq and 9.68E−03 mSv/MBq and 1.79E−02 mSv/MBq
same,Alpha dose,Brain,0.00E+00 mSv/MBq
same,Beta dose,Brain,6.82E−04 mSv/MBq and 6.40E−04 mSv/MBq and 6.13E−04 mSv/MBq and 7.79E−04 mSv/MBq
same,ED Cont.,Brain,9.10E−06 mSv/MBq and 1.05E−05 mSv/MBq and 7.39E−06 mSv/MBq and 1.00E−05 mSv/MBq
same,EDE Cont.,Brain,0.00E+00 mSv/MBq
same,Photon dose,Brain,1.14E−03 mSv/MBq and 1.46E−03 mSv/MBq and 8.65E−04 mSv/MBq and 1.23E−03 mSv/MBq
same,Total dose,Brain,1.82E−03 mSv/MBq and 2.10E−03 mSv/MBq and 1.48E−03 mSv/MBq and 2.01E−03 mSv/MBq
same,Alpha dose,Breasts,0.00E+00 mSv/MBq
same,Photon dose,Breasts,2.11E−03 mSv/MBq and 2.76E−03 mSv/MBq and 1.59E−03 mSv/MBq and 2.25E−03 mSv/MBq
same,Alpha dose,Gallbladder Wall,0.00E+00 mSv/MBq
same,ED Cont.,Gallbladder Wall,0.00E+00 mSv/MBq
same,EDE Cont.,Gallbladder Wall,0.00E+00 mSv/MBq
same,Photon dose,Gallbladder Wall,4.59E−03 mSv/MBq and 5.27E−03 mSv/MBq and 4.07E−03 mSv/MBq and 4.46E−03 mSv/MBq
same,Total dose,Gallbladder Wall,8.07E−03 mSv/MBq and 9.96E−03 mSv/MBq and 6.09E−03 mSv/MBq and 8.56E−03 mSv/MBq
same,Alpha dose,Heart Wall,0.00E+00 mSv/MBq
same,Beta dose,Heart Wall,6.65E−03 mSv/MBq and 8.27E−03 mSv/MBq and 4.65E−03 mSv/MBq and 7.57E−03 mSv/MBq
same,ED Cont.,Heart Wall,0.00E+00 mSv/MBq
same,EDE Cont.,Heart Wall,0.00E+00 mSv/MBq
same,Photon dose,Heart Wall,3.57E−03 mSv/MBq and 4.29E−03 mSv/MBq and 2.82E−03 mSv/MBq and 3.84E−03 mSv/MBq
same,Total dose,Heart Wall,1.02E−02 mSv/MBq and 1.26E−02 mSv/MBq and 7.48E−03 mSv/MBq and 1.14E−02 mSv/MBq
same,Alpha dose,Kidneys,0.00E+00 mSv/MBq
same,Beta dose,Kidneys,4.32E−02 mSv/MBq and 4.21E−02 mSv/MBq and 4.45E−02 mSv/MBq and 4.30E−02 mSv/MBq
same,ED Cont.,Kidneys,2.52E−04 mSv/MBq and 2.48E−04 mSv/MBq and 2.57E−04 mSv/MBq
same,EDE Cont.,Kidneys,3.03E−03 mSv/MBq and 2.98E−03 mSv/MBq and 3.08E−03 mSv/MBq and 3.02E−03 mSv/MBq
same,Photon dose,Kidneys,7.22E−03 mSv/MBq and 7.59E−03 mSv/MBq and 6.83E−03 mSv/MBq and 7.33E−03 mSv/MBq
same,Total dose,Kidneys,5.04E−02 mSv/MBq and 4.97E−02 mSv/MBq and 5.13E−02 mSv/MBq and 5.03E−02 mSv/MBq
same,Alpha dose,LLI Wall,0.00E+00 mSv/MBq
same,ED Cont.,LLI Wall,2.43E−03 mSv/MBq and 2.50E−03 mSv/MBq and 2.44E−03 mSv/MBq and 1.48E−03 mSv/MBq
same,Photon dose,LLI Wall,7.31E−03 mSv/MBq and 7.16E−03 mSv/MBq and 5.96E−03 mSv/MBq and 8.79E−03 mSv/MBq
same,Total dose,LLI Wall,2.02E−02 mSv/MBq and 2.08E−02 mSv/MBq and 2.03E−02 mSv/MBq and 1.23E−02 mSv/MBq
same,Alpha dose,Liver,0.00E+00 mSv/MBq
same,Beta dose,Liver,1.27E−02 mSv/MBq and 1.45E−02 mSv/MBq and 1.20E−02 mSv/MBq and 1.16E−02 mSv/MBq
same,ED Cont.,Liver,8.78E−04 mSv/MBq and 1.00E−03 mSv/MBq and 8.20E−04 mSv/MBq and 8.13E−04 mSv/MBq
same,Photon dose,Liver,4.84E−03 mSv/MBq and 5.51E−03 mSv/MBq and 4.36E−03 mSv/MBq and 4.71E−03 mSv/MBq
same,Total dose,Liver,1.76E−02 mSv/MBq and 2.00E−02 mSv/MBq and 1.64E−02 mSv/MBq and 1.63E−02 mSv/MBq
same,Alpha dose,Lungs,0.00E+00 mSv/MBq
same,Beta dose,Lungs,5.19E−03 mSv/MBq and 5.73E−03 mSv/MBq and 5.16E−03 mSv/MBq and 4.82E−03 mSv/MBq
same,ED Cont.,Lungs,9.74E−04 mSv/MBq and 1.11E−03 mSv/MBq and 9.04E−04 mSv/MBq and 9.57E−04 mSv/MBq
same,EDE Cont.,Lungs,9.74E−04 mSv/MBq and 1.11E−03 mSv/MBq and 9.04E−04 mSv/MBq and 9.57E−04 mSv/MBq
same,Photon dose,Lungs,2.93E−03 mSv/MBq and 3.54E−03 mSv/MBq and 2.37E−03 mSv/MBq and 3.15E−03 mSv/MBq
same,Total dose,Lungs,8.12E−03 mSv/MBq and 9.27E−03 mSv/MBq and 7.53E−03 mSv/MBq and 7.97E−03 mSv/MBq
same,Alpha dose,Muscle,0.00E+00 mSv/MBq
same,Beta dose,Muscle,6.19E−03 mSv/MBq and 6.08E−03 mSv/MBq and 5.15E−03 mSv/MBq and 7.68E−03 mSv/MBq
same,ED Cont.,Muscle,4.85E−05 mSv/MBq and 4.95E−05 mSv/MBq and 3.99E−05 mSv/MBq and 5.88E−05 mSv/MBq
same,EDE Cont.,Muscle,0.00E+00 mSv/MBq
same,Photon dose,Muscle,3.51E−03 mSv/MBq and 3.83E−03 mSv/MBq and 2.83E−03 mSv/MBq and 4.07E−03 mSv/MBq
same,Total dose,Muscle,9.71E−03 mSv/MBq and 9.91E−03 mSv/MBq and 7.98E−03 mSv/MBq and 1.18E−02 mSv/MBq
same,Alpha dose,Osteogenic Cells,0.00E+00 mSv/MBq
same,Photon dose,Osteogenic Cells,3.47E−03 mSv/MBq and 4.14E−03 mSv/MBq and 2.74E−03 mSv/MBq and 3.80E−03 mSv/MBq
same,Alpha dose,Ovaries,0.00E+00 mSv/MBq
same,Photon dose,Ovaries,7.00E−03 mSv/MBq and 6.95E−03 mSv/MBq and 5.52E−03 mSv/MBq and 8.79E−03 mSv/MBq
same,Total dose,Ovaries,1.01E−02 mSv/MBq and 1.16E−02 mSv/MBq and 7.54E−03 mSv/MBq and 1.23E−02 mSv/MBq
same,Alpha dose,Pancreas,0.00E+00 mSv/MBq
same,Beta dose,Pancreas,1.20E−02 mSv/MBq and 1.62E−02 mSv/MBq and 1.13E−02 mSv/MBq and 1.18E−02 mSv/MBq
same,ED Cont.,Pancreas,8.46E−05 mSv/MBq and 1.10E−04 mSv/MBq and 7.72E−05 mSv/MBq and 8.44E−05 mSv/MBq
same,EDE Cont.,Pancreas,8.14E−04 mSv/MBq and 1.32E−03 mSv/MBq and 9.27E−04 mSv/MBq and 1.01E−03 mSv/MBq
same,Photon dose,Pancreas,4.90E−03 mSv/MBq and 5.90E−03 mSv/MBq and 4.18E−03 mSv/MBq and 5.04E−03 mSv/MBq
same,Total dose,Pancreas,1.69E−02 mSv/MBq and 2.21E−02 mSv/MBq and 1.54E−02 mSv/MBq
same,Alpha dose,Red Marrow,0.00E+00 mSv/MBq
same,Beta dose,Red Marrow,5.39E−03 mSv/MBq and 6.61E−03 mSv/MBq and 4.29E−03 mSv/MBq and 5.25E−03 mSv/MBq
same,ED Cont.,Red Marrow,1.09E−03 mSv/MBq and 1.30E−03 mSv/MBq and 8.70E−04 mSv/MBq and 1.13E−03 mSv/MBq
